Biological target: cerebral receptor sites of the benzodiazepines
Experiment: Affinity for the cerebral receptor sites of the benzodiazepines (displacement of 3H-Diazepam, method of Mohler et al.)
Settings: displacement of 3H-Diazepam from its binding site; Ki calculated from IC50, C and KD
Text: The products have been tested according to the method of Mohler et al., Life Science, 1977, 20, 2101, which is relied on herein.

| Compound | Ki [µM] |
| --- | --- |
| Cc1nc2ccccc2c(CCC2CCNCC2)c1Cl [Example 4, 2-Methyl-3-chloro-4-[2-(4-piperidyl)-ethyl]-quinoline] | 1 |
| COc1ccc2ncc(Cl)c(CCC3CCNCC3)c2c1 [Example 3, 3-Chloro-6-methoxy-4-[2-(4-piperidyl)-ethyl]-quinoline] | 12 |
| Cc1cccc2c(CC3CCNCC3)c(Cl)cnc12 [Example 8, 3-Chloro-8-methyl-4-[(4-piperidyl)-methyl]-quinoline] | 10 |
| Clc1cnc2ccccc2c1CCC1CCNCC1 [Example 1, 3-Chloro-4-[2-(4-piperidyl)-ethyl]-quinoline] | 2 |
| Clc1c(-c2ccccc2)nc2ccccc2c1CCC1CCNCC1 [Example 5, 2-Phenyl-3-chloro-4-[2-(4-piperidyl)-ethyl]-quinoline] | 0.5 |
| Clc1cc2ccccc2nc1CCC1CCNCC1 [Example 9, 3-Chloro-2-[2-(4-piperidyl)-ethyl]-quinoline] | 5 |
| Clc1cnc2ccccc2c1CC1CCNCC1 [Example 6, 3-Chloro-4-[(4-piperidyl)-methyl]-quinoline] | 5 |

Biological target: cerebral receptor sites of the benzodiazepines
Experiment: not given
Settings: 3H-Diazepam; constant used in the formula for Ki; read-out: KD (constant of affinity); cited from earlier work

| Compound | Kd [µM] |
| --- | --- |
| CN1C(=O)CN=C(c2ccccc2)c2cc(Cl)ccc21 [3H Diazepam] | 2.74 |

Source: US4493838A, “Medicaments containing derivatives of 3-chloro-quinoline” (Pharmindustrie, priority 1980, dated 1985)
